Assay results reported in article PMC7667029, “A Targeted Computational Screen of the SWEETLEAD Database Reveals FDA-Approved Compounds with Anti-Dengue Viral Activity” (mBio, 2020).

Legend:
DENV2 [1] = test: DENV2-infected AGB6 mouse model (splenic titer, survival); format: in vivo, AGB6 mice; conditions: AGB6 mice, 15 mg/kg vandetanib twice daily, 15 mg/kg; for Splenic viral titer: 4 days postinfection; for Survival of infected mice: oral
BHK-21 and Huh7 cells = test: Cell viability by WST assay in uninfected cells (Table S1); format: cell-based; conditions: cell viability relative to vehicle at these doses
Method: Supplementary file : TABLE S1 Summary of hits for lead compounds ARDP0006 and ST-148 screened for anti-dengue activity in tissue culture cells. Hit compounds were tested for anti-dengue activity and cell toxicity in tissue culture cell lines. Antiviral activity is summarized as follows: −, not antiviral, with titer greater than 50% of vehicle; +, weakly antiviral, with titer between 20 and 50% of vehicle; ++, moderately antiviral, with titer between 5 and 20% of vehicle; +++, highly antiviral, with titer less than 5% of vehicle. Toxicity at these doses is represented as follows: −, nontoxic, with cell viability greater than 80% of vehicle; +, mild toxicity, with cell viability between 60 and 80% of vehicle; +++, high toxicity, with cell viability less than 60% of vehicle. Data summarized here are depicted graphically in Fig. S1 and Fig. 2C, 3C, and [4]C. […]
Supplementary file : FIG S1 Initial screening of eliminated hit compounds for anti-dengue activity in tissue culture cells. […] Cell viability in uninfected cells in the presence of compounds for 48 h was measured by WST assay (gray). […]
Mock-infected wells were used to determine cell viability in the presence of chemical compounds compared to 1% DMSO vehicle control. Cell viability was determined using the WST-1 kit (Abcam) per the manufacturer’s instructions. […]

[2] = ref PubChem database, cited from earlier work
DENV2 [3] = test: Antiviral activity in DENV2-infected Huh7 cells, infectious virus in supernatant by plaque assay; format: cell-based, dengue virus; conditions: Dengue virus, Huh-7, DENV2-infected Huh7 cells

COc1cc2c(Nc3ccc(Br)cc3F)ncnc2cc1OCC1CCN(C)CC1 [Vandetanib, vandetanib]
Splenic viral titer (DENV2 [1]): did not affect splenic titers
Splenic viral titer (DENV2 [1]; listed as vandetanib): did not significantly impact splenic viral titer
Survival of infected mice (DENV2 [1]): extend survival
Survival of infected mice (DENV2 [1]; listed as vandetanib): significantly extended survival
Toxicity (BHK-21 and Huh7 cells): − (nontoxic, with cell viability greater than 80% of vehicle)
LD50 ([2]; Oral, single dose): > 1000 mg/kg
Acute toxicity in words (Table S2) ([2]; healthy mice): only mildly toxic
IC90 (DENV2 [3]; from dose-response curve fit, 24 hpi): 3600 nM
IC50 (DENV2 [3]; single infectious cycle, plaque assay at 24 hpi, read-out: IC50 of viral inhibition (infectious extracellular virus)): 1600 nM
